Source: publication PMC6696373 (Molecules, 2019)
Entries after “also recorded” stand apart in the source; their conditions may differ. Values belong to the substance of their own block, whether it stands above or below them. Where no end group is shown, it is not given here.

Columns and labels:
Caco-2 cell monolayers [1] = conditions: cited from earlier work
Procedure: To elucidate the transepithelial transport pathway of WGAPSL, some inhibitors, such as cytochalasin D, wortmannin, sodium azide, and Gly-Pro, were added to Caco-2 cell monolayers (Figure 4).

Caco-2 cell monolayers [2] = conditions: cited from earlier work; remark: listed apart in the source
Description: The apparent permeability coefficient (Papp) value reflects the velocity of passage through the epithelium.

[3] = tested on: 1:10,000 pepsin, then 1:250 trypsin; test: simulated gastrointestinal digestion: pepsin in HBSS at pH 2.0, then trypsin at pH 7.5; conditions: 37 °C, up to 90 min (pepsin) then 4 h (trypsin)
[4] = Caco-2 cell monolayers in HBSS, apical (AP) and basolateral (BL) sides; conditions: human, 37 °C, up to 120 min
Caco-2 cell monolayers [5] = test: Transepithelial transport across Caco-2 cell monolayers; type: in vitro ADME, human; conditions: concluded from the efflux ratio in Caco-2 monolayers
Procedure: Caco-2 cells were obtained from China Infrastructure of Cell Line Resource (Beijing, China) and were cultured based on the method of Zhang et al.. Cells were cultured in MEM containing 10% fetal bovine serum, 1 mM nonessential amino acid solution, 1% penicillin-streptomycin, and 1% HEPES buffer. Caco-2 cells were seeded at 5 × 10^5 cells/mL in 25 cm^2 tissue culture flasks, and incubated at 37 °C in 5% CO2 with 95% humidity. The passage number of the cells used in the study was between 30 and 40. The medium in cell cultures were replaced every two days and detached from 70–80% confluency using 0.05% trypsin and 0.02% Ethylene Diamine Tetraacetic Acid (EDTA) solution. For the transport experiments, Caco-2 cells were seeded into a collagen-coated transwell plate (6.5 mm diameter, 0.4 μm pore size Corning Costar) at a density of 1 × 10^5 cells/well. […]
The bilateral transport experiments also assessed transport from the BL to AP side. […]
The Papp values were calculated as follows (Equation (1)):(1) Papp=dQ/dt×1/A×1/C0 where dQ/dt is the permeability rate (mmol/s); A is the membrane area (cm^2); and C0 is the initial concentration of peptide solution in the donor chamber (mM). […]
A standard curve was prepared with a synthetic peptide diluted in HBSS, and the peptide concentrations were 0–3.9 μM. The curve was analyzed as indicated above for the BL samples. […]

pepsin and trypsin = test: Simulated gastrointestinal digestion (two-stage pepsin then trypsin hydrolysis); type: in vitro ADME; conditions: 1 mg/mL in HBSS, pepsin pH 2.0, E/S 1:50 w/w, 37 °C, 90 min, then trypsin pH 7.5, E/S 1:50 w/w, 4 h, LC-MS, mean ± spread
Procedure: Simulated gastrointestinal digestion was done based on the method of Quirós et al.. Synthetic peptide (1 mg/mL) was prepared in HBSS and acidified with HCl to reach pH 2.0, then hydrolyzed with 1:10,000 pepsin at an enzyme/substrate ratio of 1:50 (w/w), and incubated in constant temperature water oscillation at 37 °C for 90 min with a low shaking rate (120 rpm). After gastric digestion, samples were adjusted to pH 7.5 with saturated NaHCO3 and 1:250 trypsin was added at an enzyme/substrate ratio of 1:50 (w/w), and incubated in constant temperature water oscillation at 37 °C for 4 h with a low shaking rate (120 rpm). Reactions were stopped in a boiling water bath for 10 min. Digested samples were centrifuged (3K15, SIGMA Laborzentrifugen GmbH, Germany) at 30,000× g at 4 °C for 20 min and diluted 100 times to analyze peptide concentrations using liquid chromatography-tandem mass spectrometry (LC-MS, 1200, Agilent, CA, USA).

Caco-2 cell monolayers [6] = test: Effects of transport pathway inhibitors on peptide transport in Caco-2 cell monolayers; type: in vitro ADME, human; conditions: Caco-2 AP→BL, 2 mM in HBSS pH 7.4, 120 min, LC-MS
Procedure: Prior to transport experiments, Caco-2 cell monolayers were gently rinsed with HBSS, and then incubated for 30 min at 37 °C in 5% CO2. Afterwards, HBSS was drawn from both the AP side and BL side of all wells. HBSS (0.1 mL) with 2 mM WGAPSL was added to the AP side and 0.6 mL of fresh HBSS was added to the BL side. All transwell plates were incubated at 37 °C in 5% CO2 for 30, 60, 90, or 120 min. The transport experiment was done in triplicate for three consecutive days after 21 days, in which the cell model was developed.
Four inhibitors, including transport inhibitors cytochalasin D (a cell tight junction disruptor, 0.5 μg/mL), wortmannin (transcytosis inhibitor, 500 nM), sodium azide (ATP synthesis inhibitor, 10 mM), and Gly-Pro (transport peptide PepT 1 substrate, 10 mM) were applied to identify the transport routes of the peptide. After 120 min, the concentration of the peptide was determined in the basolateral samples [6].
Analysis of AP and BL samples gathered after the transport of WGAPSL across Caco-2 cells was performed by Agilent LC-MS (6420 Triple Quad, […]). A symmetrical 4.6 × 250 mm C18 column (GL Sciences, Tokyo, Japan) was used for fragments separations. The analysis was done in the MS Scan mode, and the injection volume was set to 20 μL. The peptide was applied in formic acid as an organic regulator to improve the MS signal of the peptide. Solvents A and B were formic acid/milli Q water (0.1:100, v/v) and formic acid/acetonitrile (0.1:100, v/v). For WGAPSL, the sample elution was run at 0.7 mL/min using a linear gradient of solvent B in A from 18% to 43% for 25 min, 43–100% for 5 min, and 100–18% for 10 min to equalize the column. The accumulation and ionization conditions in the ion trap were optimized automatically, and the target mass of the molecular ion was as follows: m/z 630.633 (WGAPSL).

CCK-8 cytotoxicity assay = type: cell-based, human; conditions: human, Caco-2, 10 mM peptide in DMEM, 2 h incubation then 4 h with CCK-8, 37 °C, absorbance, three replications, read-out: Survival rate of Caco-2 cells
Procedure: (§1) The effects of the WGAPSL peptide on Caco-2 cell proliferation were observed using the CCK-8 cell counting kit (Dojindo, Japan). The WST-8 (2-(2-methoxy-4-nitrophenyl)-3-(4-nitrophenyl)-5-(2,4-disulfophenyl)-2H-tetrazolium, monosodium salt) reagent was used based on the kit specifications. Caco-2 cells were plated in 96-well culture plates in a final volume of 100 μL/well of culture medium (1 × 10^5 cells/well) at 37 °C in 5% CO2 for 24 h and incubated with 1–10 mM WGAPSL (diluted in DMEM) or DMEM only for 2 h, followed by incubation with 10 μL CCK-8 and incubation for another 4 h and then the absorbance was measured.

Caco-2 cells = test: CCK-8 cytotoxicity assay; type: cell-based, human; conditions: 2 h incubation then 4 h with CCK-8, 37 °C, absorbance, three replications
Procedure: as §1

Substance: Gln-Ile-Gly-Leu-Phe [QIGLF]
Change of Papp value after cytochalasin D treatment (Caco-2 cell monolayers [1]): significantly (p < 0.05) increased

Substance: Val-Pro-Pro [VPP]
Papp value (Caco-2 cell monolayers [2]): 0.005 ×10⁻⁶ cm/s

fragment found [3]: APSL and PSL and GAPSL and WGA and WG
Substance: WGAPSL
cleaved bond [4]: W-G, 120 min; also recorded: P-S, 120 min; also recorded: S-L, 120 min

P-glycoprotein substrate status (Caco-2 cell monolayers [5]): not a substrate of P-glycoprotein | Stability (intact peptide) after simulated gastric and intestinal digestion (pepsin and trypsin): 83.9% ± 1.98 | Effect of wortmannin on peptide concentration (BL side) (Caco-2 cell monolayers [6]; 30 min preincubation with 500 nM wortmannin (transcytosis inhibitor)): did not significantly (p > 0.05) affect | Effect of Gly-Pro on peptide transport (Caco-2 cell monolayers [6]; 30 min preincubation with 10 mM Gly-Pro (PepT1 substrate)): not significantly (p > 0.05) decreased | Effect of sodium azide on peptide transport (Caco-2 cell monolayers [6]; 30 min preincubation with 10 mM sodium azide (ATP synthesis inhibitor)): A similar result | Increase of peptide concentration in the BL side vs control, with cytochalasin D (Caco-2 cell monolayers [6]; 30 min preincubation with cytochalasin D 0.5 μg/mL (tight junction disruptor), p < 0.05): 66%
Substance: WGAPSL [WGAPSL, Trp-Gly-Ala-Pro-Ser-Leu]
viability at 2 h, 10000 µM (CCK-8 cytotoxicity assay): 27% | Cytotoxicity for Caco-2 cells (Caco-2 cells; 1 mM peptide in DMEM): non-toxic | Cytotoxicity for Caco-2 cells (Caco-2 cells; 2 mM peptide in DMEM): non-toxic
